Like-named read-outs stand apart in the source and are kept apart here.
How the values were obtained:
[1] = test system: vaccinia virus (strain Copenhagen)
[2] = test system: vaccinia virus (strain Copenhagen); assay: microbe, parasite or virus in culture; settings: Orthopoxvirus vaccinia, Vero, 96 h
in vitro [3] = settings: African green monkey
[4] = test system: Marburg pseudovirus (GP MARV)
in vitro [5] = settings: human
[6] = test system: Marburg pseudovirus (GP MARV); assay: microbe, parasite or virus in culture; settings: 24 h

Row | Compound | SI (CC50/IC50) [1] | IC50 [2] | CC50 (in vitro [3]) | SI (CC50/IC50) [4] | CC50 (in vitro [5]) | IC50 [6] | IC50 [4]
1 | CC1(C)[C@H]2CC[C@]1(C)/C(=N\N=C1\SCC(=O)N1c1ccccc1)C2 [3′a, (Z)-3-phenyl-2-((E)-((1S,4S)-1,7,7-trimethylbicyclo[2.2.1]heptan-2-ylidene)hydrazono)thiazolidin-4-one] | 4 | 75 ± 13.7 µM | 290 ± 36.9 µM | – | – | – | –
2 | CN1C(=O)CS/C1=N/N=C1/C[C@@H]2CC[C@@]1(C)C2(C)C [3′d, (Z)-3-methyl-2-((E)-((1S,4S)-1,7,7-trimethylbicyclo[2.2.1]heptan-2-ylidene)hydrazono)thiazolidin-4-one] | – | – | 250 ± 31.4 µM | 6 | 182 ± 14.3 µM | 28.6 ± 10.7 µM | –
3 | Nc1ccn(C[C@@H](CO)OCP(=O)(O)O)c(=O)n1 [Cidofovir, reference compound] | 12 | 40.1 ± 2.8 µM | 475 ± 74.9 µM | – | – | – | –
4 | C=CCN1C(=O)CS/C1=N/N=C1/C[C@H]2CC[C@]1(C)C2(C)C [Compound 3b, (Z)-3-allyl-2-((E)-((1R,4R)-1,7,7-trimethylbicyclo[2.2.1]heptan-2-ylidene)hydrazono)thiazolidin-4-one] | – | 72 ± 12.2 µM | 99 ± 11.8 µM | 5 | 108 ± 6.5 µM | 22.9 ± 0.7 µM | –
5 | CCN1C(=O)C(C)(C)SC1=NN=C1CC2CCC1(C)C2(C)C [Compound 4c, ((Z)-3-ethyl-5,5-dimethyl-2-((E)-((1R,4R)-1,7,7-trimethylbicyclo[2.2.1]heptan-2-ylidene)hydrazono)thiazolidin-4-one] | – | – | 290 ± 34.9 µM | 5 | 778 ± 82.8 µM | 171 ± 46.7 µM | –
6 | Cc1ccc(-c2cs/c(=N/N=C3\C[C@H]4CC[C@]3(C)C4(C)C)n2-c2ccccc2)cc1 [Compound 6a, (E)-3-phenyl-4-p-tolyl-2-((E)-((1R,4R)-1,7,7-trimethylbicyclo[2.2.1]heptan-2-ylidene)hydrazono)-2,3-dihydrothiazole] | – | – | 98 ± 11.6 µM | 2 | 135 ± 19.2 µM | 60.2 ± 14.4 µM | –
7 | CCn1c(-c2ccc(C)cc2)cs/c1=N/N=C1\C[C@H]2CC[C@]1(C)C2(C)C [Compound 6c, (E)-3-ethyl-4-p-tolyl-2-((E)-((1R,4R)-1,7,7-trimethylbicyclo[2.2.1]heptan-2-ylidene)hydrazono)-2,3-dihydrothiazole] | – | – | 15 ± 2.9 µM | – | – | – | –
8 | COc1ccc(-c2cs/c(=N/N=C3\C[C@H]4CC[C@]3(C)C4(C)C)n2-c2ccccc2)cc1 [Compound 7a, (E)-4-(4-methoxyphenyl)-3-phenyl-2-((E)-((1R,4R)-1,7,7-trimethylbicyclo[2.2.1]heptan-2-ylidene)hydrazono)-2,3-dihydrothiazole] | – | – | 232 ± 29.6 µM | 8 | 973 ± 61.6 µM | 127 ± 23.2 µM | –
9 | C=CCn1c(-c2ccc(OC)cc2)cs/c1=N/N=C1\C[C@H]2CC[C@]1(C)C2(C)C [Compound 7b, (E)-3-allyl-4-(4-methoxyphenyl)-2-((E)-((1R,4R)-1,7,7-trimethylbicyclo[2.2.1]heptan-2-ylidene)hydrazono)-2,3-dihydrothiazole] | – | – | 200 ± 23.1 µM | 3 | 37.9 ± 8.3 µM | 13.9 ± 2.5 µM | –
10 | CCn1c(-c2ccc(OC)cc2)cs/c1=N/N=C1\C[C@H]2CC[C@]1(C)C2(C)C [Compound 7c, (E)-3-ethyl-4-(4-methoxyphenyl)-2-((E)-((1R,4R)-1,7,7-trimethylbicyclo[2.2.1]heptan-2-ylidene)hydrazono)-2,3-dihydrothiazole] | – | – | – | 9 | 117 ± 10.4 µM | 13 ± 5.2 µM | –
11 | COc1ccc(-c2cs/c(=N/N=C3\C[C@H]4CC[C@]3(C)C4(C)C)n2C)cc1 [Compound 7d, (E)-4-(4-methoxyphenyl)-3-methyl-2-((E)-((1R,4R)-1,7,7-trimethylbicyclo[2.2.1]heptan-2-ylidene)hydrazono)-2,3-dihydrothiazole] | – | – | – | 4 | 97.4 ± 21.6 µM | – | 27.1 ± 8.1 µM
12 | CN[C@H]1CC[C@@H](c2ccc(Cl)c(Cl)c2)c2ccccc21 [Sertraline, reference compound] | – | – | – | – | 408 ± 35.9 µM | – | –

— paper PMC9331314, “Synthesis and Antiviral Properties of Camphor-Derived Iminothiazolidine-4-Ones and 2,3-Dihydrothiazoles” (Molecules, 2022)
